We go through 32 molecules from patent publication US11046691B1 (IDEAYA BIOSCIENCES, INC., priority 2018, dated 2021).

Some results are limits rather than exact numbers.

By IC50 is commonly meant the concentration at which inhibition is half-maximal.

The target of the first assay is hMAT2A (Homo sapiens (Human), UniProt P31153). The experiment in a line: Phosphate Sensor Fluorescence Assay (MAT2A enzyme inhibition). Type of assay: biochemical. Particulars: L-methionine 500 uM, ATP 500 uM, class symbols. In short, it runs like this: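 Recombinant MAT2A preincubated 15 min at room temperature with compound, then reacted 1 h at room temperature with 500 uM L-methionine and 500 uM ATP in Tris pH 7.5 buffer containing PNP/7-MEG.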
Chain of hMAT2A (P31153 whole entry): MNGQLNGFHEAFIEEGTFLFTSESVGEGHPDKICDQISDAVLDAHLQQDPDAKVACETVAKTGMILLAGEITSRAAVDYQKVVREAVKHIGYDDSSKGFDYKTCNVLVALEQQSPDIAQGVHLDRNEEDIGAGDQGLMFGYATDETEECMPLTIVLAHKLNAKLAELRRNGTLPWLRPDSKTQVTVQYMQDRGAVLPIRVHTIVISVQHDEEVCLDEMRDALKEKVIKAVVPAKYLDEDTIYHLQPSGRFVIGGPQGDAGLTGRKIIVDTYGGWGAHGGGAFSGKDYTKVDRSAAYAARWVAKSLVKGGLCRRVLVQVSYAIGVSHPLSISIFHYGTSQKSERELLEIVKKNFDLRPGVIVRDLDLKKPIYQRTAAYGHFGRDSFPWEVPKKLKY
As for `CN(C)c1nc(=O)n(-c2cccc(NS(=O)(=O)C3(C)CC3)c2)c2cc(Cl)ccc12` [Example 211], the IC50 lay within 500 to 1000 nM.

`CCOC(=O)c1ccc2c(=O)[nH]c(=O)n(-c3ccccc3)c2c1` [Example 213, ethyl 2,4-dioxo-1-phenyl-1,3-dihydro-quinazoline-7-carboxylate] yielded an IC50 of 1000 to 10000 nM.

In turn, `CNc1nc(=O)n(-c2ccn[nH]2)c2cc(Cl)ccc12` [Example 214, 7-chloro-4-(methylamino)-1-pyrazol-5-ylhydroquinazolin-2-one] gave an IC50 of less than 200 nM.

In the case of `C[C@@]1(O)CCN(c2nc(=O)n(-c3ccccc3)c3cc(Cl)ccc23)C1` [Example 217, 4-((3R)-3-hydroxy-3-methylpyrrolidin-1-yl)-7-chloro-1-phenylhydroquinazolin-2-one], the IC50 lay in the range of 200 to 500 nM.

`CNc1nc(=O)n(-c2ccccc2Cl)c2cc(Cl)ccc12` [Example 218, 7-chloro-1-(2-chlorophenyl)-4-(methylamino)quinazolin-2(1H)-one] came in with a concentration for half-maximal inhibition (IC50) of less than 200 nM.

On to `CNc1nc(=O)n(-c2ccccc2C#N)c2cc(Cl)ccc12` [Example 219, 2-(7-chloro-4-(methylamino)-2-oxo-quinazolin-1(2H)-yl)benzonitrile], for which the IC50 is 200 to 500 nM.

`CN(C)C(=O)CN(C)c1nc(=O)n(-c2ccccc2)c2cc(Cl)ccc12` [Example 220, 2-((7-chloro-2-oxo-1-phenyl-1,2-dihydroquinazolin-4-yl)(methyl)amino)-N,N-dimethylacetamide] had an IC50 of 1000 to 10000 nM.

The molecule `CNC(=O)CN(C)c1nc(=O)n(-c2ccccc2)c2cc(Cl)ccc12` [Example 221, 2-((7-chloro-2-oxo-1-phenyl-1,2-dihydroquinazolin-4-yl)(methyl)amino)-,N-methylacetamide] showed an IC50 of 1000 to 10000 nM.

`O=c1nc(N2CC3CC3C2)c2ccc(Cl)cc2n1-c1ccccc1` (centres unmarked) [Example 222, 4-(3-azabicyclo[3.1.0]hex-3-yl)-7-chloro-1-phenylhydroquinazolin-2-one] registered an IC50 of less than 200 nM.

Turning to `CC1CCN1c1nc(=O)n(-c2ccccc2)c2cc(Cl)ccc12` (centres unmarked) [Example 223, 7-chloro-4-(2-methylazetidin-1-yl)-1-phenylhydroquinazolin-2-one], the concentration for half-maximal inhibition (IC50) is less than 200 nM.

On to `CNc1nc(=O)n(-c2ccccc2Br)c2cc(Cl)ccc12` [Example 225, 1-(2-bromophenyl)-7-chloro-4-(methylamino)quinazolin-2-one], for which the IC50 was less than 200 nM.

`CNc1nc(=O)n(-c2ccccc2OC)c2cc(Cl)ccc12` [Example 226, 7-chloro-1-(2-methoxyphenyl)-4-(methylamino)hydroquinazolin-2-one]: the IC50 was less than 200 nM.

On to `CN(C)c1nc(=O)n(-c2cccc(CCCc3ccccc3)c2)c2cc(Cl)ccc12` [Example 227, 4-(dimethylamino)-7-chloro-1-[3-(3-phenylpropyl)phenyl]hydroquinazolin-2-one], for which the IC50 was less than 200 nM.

`COC1CCN(c2nc(=O)n(-c3ccccc3)c3cc(Cl)ccc23)C1` (centres unmarked) [Example 230, 7-chloro-4-(3-methoxypyrrolidin-1-yl)-1-phenylquinazolin-2(1H)-one]: the IC50 is less than 200 nM.

Molecule `CN(C)C(=O)CNc1nc(=O)n(-c2ccccc2)c2cc(Cl)ccc12` [Example 231, 2-[(7-chloro-2-oxo-1-phenyl-1,2-dihydroquinazolin-4-yl)amino]-N,N-dimethylacetamide] yielded an IC50 of 1000 to 10000 nM.

Take `O=c1nc(NCC2COC2)c2ccc(Cl)cc2n1-c1ccccc1` [Example 232, 7-chloro-4-[(oxetan-3-ylmethyl)amino]-1-phenylhydroquinazolin-2-one]: the IC50 is less than 200 nM.

Take `Cn1ccc(CNc2nc(=O)n(-c3ccccc3)c3cc(Cl)ccc23)n1` [Example 233, 7-chloro-4-1{[(1-methylpyrazol-3-yl)-methyl]amino}-1-phenylhydro-quinazolin-2-one]: the IC50 is less than 200 nM.

With `CN(Cc1ccncc1)c1nc(=O)n(-c2ccccc2)c2cc(Cl)ccc12` [Example 234, 7-chloro-4-[methyl(pyridin-4-ylmethyl)-amino]-1-phenylhydroquinazolin-2-one], the IC50 was less than 200 nM.

Regarding `CN(Cc1cccnc1)c1nc(=O)n(-c2ccccc2)c2cc(Cl)ccc12` [Example 235, 7-chloro-4-[methyl(pyridin-3-ylmethyl)-amino]-1-phenylhydroquinazolin-2-one], the IC50 is less than 200 nM.

As for `CN(CC(F)(F)F)c1nc(=O)n(-c2ccccc2)c2cc(Cl)ccc12` [Example 237, 7-chloro-4-[methyl(2,2,2-trifluoroethyl)-amino]-1-phenylhydroquinazolin-2-one], the IC50 is less than 200 nM.

As for `CC1(C)CCN(c2nc(=O)n(-c3ccccc3)c3cc(Cl)ccc23)C1` [Example 238, 4-(3,3-dimethylpyrrolidin-1-yl)-7-chloro-1-phenylhydroquinazolin-2-one], the IC50 is less than 200 nM.

In the case of `O=c1nc(N2CC[C@@H](O)C2)c2ccc(Cl)cc2n1-c1ccccc1` [Example 239, 4-((3R)-3-hydroxypyrrolidinyl)-7-chloro-1-phenylhydroquinazolin-2-one], the IC50 is less than 200 nM.

Regarding `NC(=O)[C@@H]1CCCN1c1nc(=O)n(-c2ccccc2)c2cc(Cl)ccc12` [Example 240, (2S)-1-(7-chloro-2-oxo-1-phenylhydro-quinazolin-4-yl)pyrrolidine-2-carboxamide], the IC50 was in the range of 1000 to 10000 nM.

On to `NC(=O)[C@H]1CCCN1c1nc(=O)n(-c2ccccc2)c2cc(Cl)ccc12` [Example 241, (2R)-1-(7-chloro-2-oxo-1-phenylhydro-quinazolin-4-yl)pyrrolidine-2-carboxamide], for which the half-maximal inhibitory concentration (IC50) lay within 1000 to 10000 nM.

Still in this assay, the particulars now being: L-methionine 500 uM, ATP 500 uM, numeric bound.
The molecule `CNc1nc(=O)n(-c2ccccc2)c2cc(Cl)cc(-n3nccn3)c12` [Example 209, 7-chloro-4-(methylamino)-1-phenyl-5-(1,2,3-triazol-2-yl)quinazolin-2(1H)-one] showed an IC50 of more than 10000 nM.

Molecule `O=c1[nH]c(=O)n(-c2nccc(O)n2)c2cc(Cl)ccc12` [Example 210, 7-chloro-1-(4-hydroxypyrimidin-2-yl)-1,3-dihydroquinazoline-2,4-dione] displayed an IC50 of more than 10000 nM.

Regarding `O=c1[nH]c(=O)n(-c2ccccc2)c2cc(CO)ccc12` [Example 212, 7-(hydroxymethyl)-1-phenyl-1,3-dihydroquinazoline-2,4-dione], the half-maximal inhibitory concentration (IC50) is more than 10000 nM.

Regarding `Cn1ccnc1-n1c(=O)[nH]c(=O)c2ccc(Cl)cc21` [Example 215, 7-chloro-1-(1-methylimidazol-2-yl)-1,3-dihydroquinazoline-2,4-dione], the IC50 is more than 10000 nM.

In turn, `O=C(O)[C@H]1CCCN1c1nc(=O)n(-c2ccccc2)c2cc(Cl)ccc12` [Example 224, (2R)-1-(7-chloro-2-oxo-1-phenylhydro-quinazolin-4-yl)pyrrolidine-2-carboxylic acid] registered an IC50 of more than 10000 nM.

Take `CN(C)c1nc(=O)n(-c2ccccc2)c2cc(-c3cscn3)ccc12` [Example 228, 4-(dimethylamino)-1-phenyl-7-(1,3-thiazol-4-yl)hydroquinazolin-2-one]: the IC50 is more than 10000 nM.

As for `O=c1[nH]c(=O)n(-c2ccc(O)cc2)c2cc(Cl)ccc12` [Example 229, 7-chloro-1-(4-hydroxyphenyl)-1,3-dihydroquinazoline-2,4-dione], the 50% inhibitory concentration (IC50) is more than 10000 nM.

Molecule `CN(Cc1ccccn1)c1nc(=O)n(-c2ccccc2)c2cc(Cl)ccc12` [Example 236, 7-chloro-4-[methyl(pyridin-2-ylmethyl)-amino]-1-phenylhydroquinazolin-2-one] showed a concentration for half-maximal inhibition (IC50) of more than 10000 nM.
